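48-hour exposure; five concentrations; linearly interpolated endpoints. Here, GI50 denotes the concentration required for 50% inhibition of growth. At the TGI there is no net growth.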
Tests used:
Experiment in all cases: NCI-60 cell line screen, 48 h
[1] = tested on: 786-0 renal
[2] = tested on: A498 renal
[3] = tested on: A549 NSCLC
[4] = tested on: ACHN renal
[5] = tested on: BT-549 breast
[6] = tested on: CAKI-1 renal
[7] = tested on: CCRF-CEM leukemia
[8] = tested on: COLO 205 colon
[9] = tested on: DU-145 prostate
[10] = tested on: EKVX NSCLC
[11] = tested on: HCC-2998 colon
[12] = tested on: HCT-116 colon
[13] = tested on: HCT-15 colon
[14] = tested on: HL-60(TB) leukemia
[15] = tested on: HOP-62 NSCLC
[16] = tested on: HOP-92 NSCLC
[17] = tested on: HS 578T breast
[18] = tested on: HT29 colon
[19] = tested on: IGROV1 ovarian
[20] = tested on: K-562 leukemia
[21] = tested on: KM12 colon
[22] = tested on: LOX IMVI melanoma
[23] = tested on: M14 melanoma
[24] = tested on: MALME-3M melanoma
[25] = tested on: MCF7 breast
[26] = tested on: MDA-MB-231 breast
[27] = tested on: MDA-MB-435
[28] = tested on: MOLT-4 leukemia
[29] = tested on: NCI-H226 lung
[30] = tested on: NCI-H23 lung
[31] = tested on: NCI-H460 lung
[32] = tested on: NCI-H522 lung
[33] = tested on: NCI/ADR-RES ovarian
[34] = tested on: OVCAR-3 ovarian
[35] = tested on: OVCAR-4 ovarian
[36] = tested on: OVCAR-5 ovarian
[37] = tested on: OVCAR-8 ovarian
[38] = tested on: PC-3 prostate
[39] = tested on: RPMI-8226 leukemia
[40] = tested on: RXF 393 renal
[41] = tested on: SF-268 CNS
[42] = tested on: SF-295 CNS
[43] = tested on: SF-539 CNS
[44] = tested on: SK-MEL-2 melanoma
[45] = tested on: SK-MEL-28 melanoma
[46] = tested on: SK-MEL-5 melanoma
[47] = tested on: SK-OV-3 ovarian
[48] = tested on: SN12C renal
[49] = tested on: SNB-19 CNS
[50] = tested on: SNB-75 CNS
[51] = tested on: SR leukemia
[52] = tested on: SW-620 colon
[53] = tested on: T-47D breast
[54] = tested on: TK-10 renal
[55] = tested on: U251 CNS
[56] = tested on: UACC-257 melanoma
[57] = tested on: UACC-62 melanoma
[58] = tested on: UO-31 renal

COC(=O)CCC1=C(C)C(C)=N/C1=C\c1[nH]c(-c2ccc[nH]2)cc1OC
GI50 [1]: 456 nM | TGI [1]: 2950 nM | GI50 [2]: 3350 nM | TGI [2]: 15800 nM | GI50 [3]: 368 nM | TGI [3]: 10200 nM | GI50 [4]: 410 nM | TGI [4]: 2760 nM | GI50 [5]: 621 nM | TGI [5]: 13400 nM | GI50 [6]: 338 nM | TGI [6]: 6360 nM | GI50 [7]: 403 nM | TGI [7]: 13600 nM | GI50 [8]: 394 nM | TGI [8]: 1480 nM | GI50 [9]: 880 nM | TGI [9]: 14900 nM | GI50 [10]: 712 nM | TGI [10]: 14300 nM | GI50 [11]: 464 nM | TGI [11]: 14600 nM | GI50 [12]: 326 nM | TGI [12]: 1260 nM | GI50 [13]: 262 nM | TGI [13]: 3150 nM | GI50 [14]: 567 nM | TGI [14]: 3340 nM | GI50 [15]: 471 nM | TGI [15]: 1720 nM | GI50 [16]: 211 nM | TGI [16]: 649 nM | GI50 [17]: 1060 nM | TGI [17]: 8150 nM | GI50 [18]: 277 nM | TGI [18]: 3850 nM | GI50 [19]: 1060 nM | TGI [19]: 17400 nM | GI50 [20]: 462 nM | TGI [20]: 24200 nM | GI50 [21]: 393 nM | TGI [21]: 6390 nM | GI50 [22]: 221 nM | TGI [22]: 609 nM | GI50 [23]: 548 nM | TGI [23]: 12200 nM | GI50 [24]: 2010 nM | TGI [24]: 7090 nM | GI50 [25]: 297 nM | TGI [25]: 2790 nM | GI50 [26]: 228 nM | TGI [26]: 2090 nM | GI50 [27]: 472 nM | TGI [27]: 5340 nM | GI50 [28]: 567 nM | TGI [28]: 16400 nM | GI50 [29]: 313 nM | TGI [29]: 1800 nM | GI50 [30]: 805 nM | TGI [30]: 11400 nM | GI50 [31]: 490 nM | TGI [31]: 12100 nM | GI50 [32]: 515 nM | TGI [32]: 1910 nM | GI50 [33]: 476 nM | TGI [33]: 13200 nM | GI50 [34]: 478 nM | TGI [34]: 2410 nM | GI50 [35]: 371 nM | TGI [35]: 7460 nM | GI50 [36]: 490 nM | TGI [36]: 12200 nM | GI50 [37]: 334 nM | TGI [37]: 12400 nM | GI50 [38]: 633 nM | TGI [38]: 14400 nM | GI50 [39]: 356 nM | TGI [39]: 1920 nM | GI50 [40]: 242 nM | TGI [40]: 1060 nM | GI50 [41]: 935 nM | TGI [41]: 16200 nM | GI50 [42]: 724 nM | TGI [42]: 4280 nM | GI50 [43]: 639 nM | TGI [43]: 6380 nM | GI50 [44]: 363 nM | TGI [44]: 1210 nM | GI50 [45]: 1850 nM | TGI [45]: 8470 nM | GI50 [46]: 145 nM | TGI [46]: 315 nM | GI50 [47]: 2820 nM | TGI [47]: 15900 nM | GI50 [48]: 805 nM | TGI [48]: 14300 nM | GI50 [49]: 1890 nM | TGI [49]: 17000 nM | GI50 [50]: 434 nM | TGI [50]: 3620 nM | GI50 [51]: 352 nM | GI50 [52]: 385 nM | TGI [52]: 11900 nM | GI50 [53]: 329 nM | TGI [53]: 3420 nM | GI50 [54]: 930 nM | TGI [54]: 10100 nM | GI50 [55]: 419 nM | TGI [55]: 2870 nM | GI50 [56]: 1440 nM | TGI [56]: 9860 nM | GI50 [57]: 365 nM | TGI [57]: 1260 nM | GI50 [58]: 479 nM | TGI [58]: 2550 nM

From PubChem BioAssay (NCI)
